Results as given in ChEMBL document CHEMBL1921690, “Synthesis and evaluation of pyridone-phenoxypropyl-R-2-methylpyrrolidine analogues as histamine H3 receptor antagonists” (Bioorg Med Chem Lett, 2011).
One block for each compound: values may come before it.

Tests used:
Histamine H3 receptor [1] = target: T1, Histamine H3 receptor (Homo sapiens, UniProt Q9Y5N1); test: Displacement of [3H]NAMH from human histamine H3 receptor expressed in CHO cells; assay type: cell-based
Histamine H3 receptor [2] = target: Histamine H3 receptor (Rattus norvegicus, UniProt Q9QYN8); test: Displacement of [3H]NAMH from rat histamine H3 receptor expressed in CHO cells; assay type: cell-based
[3] = Clearance in rat at 1 mg/kg, iv; assay type: ADME, organism-based; design: dose 1 mg/kg, route intravenous; conditions: in vivo
[4] = Oral bioavailability in rat at 5 mg/kg; assay type: ADME, organism-based; conditions: in vivo
Histamine H3 receptor [5] = target: T1, Histamine H3 receptor; test: Antagonist activity at human histamine H3 receptor expressed in CHO cells assessed as inhibition of RAHM-induced [35S]GTPgammaS binding after 4 hrs by beta liquid scintillation counting; assay type: functional, cell-based
Rattus norvegicus [6] = test: Induction of wake promoting activity in ip dosed Sprague-Dawley rat EEG/EMG model assessed as increase in AUC of wake latency after 4 hrs post dosing; assay type: functional, organism-based
[7] = Half life in rat at 1 mg/kg, iv; assay type: ADME, organism-based; design: dose 1 mg/kg, route intravenous; conditions: in vivo
[8] = Volume of distribution in rat at 1 mg/kg, iv; assay type: ADME, organism-based; design: dose 1 mg/kg, route intravenous; conditions: in vivo
[9] = AUC (0 to t) in rat at 5 mg/kg, po; assay type: ADME, organism-based; design: dose 5 mg/kg, route oral; conditions: plasma
[10] = Cmax in rat at 5 mg/kg, po; assay type: ADME, organism-based; design: dose 5 mg/kg, route oral; conditions: in vivo
[11] = Ratio of drug level in brain to plasma in rat at 5 mg/kg, po; assay type: ADME, organism-based; design: dose 5 mg/kg, route oral; conditions: read-out: BPR
[12] = Drug level in rat brain at 10 mg/kg, ip after 1 hr; assay type: ADME, organism-based; design: dose 10 mg/kg, route intraperitoneal; conditions: read-out: Drug uptake
[13] = Ratio of drug level in brain to plasma in rat at 10 mg/kg, ip after 1 hr; assay type: ADME, organism-based; design: dose 10 mg/kg, route intraperitoneal; conditions: read-out: BPR
[14] = Aqueous solubility of compound at pH 7.4; assay type: physicochemical
[15] = Half life in human liver microsomes; assay type: ADME, Microsome
[16] = Half life in mouse liver microsomes; assay type: ADME, Microsome
[17] = Half life in rat liver microsomes; assay type: ADME, Microsome
[18] = Half life in monkey liver microsomes; assay type: ADME, Macaca mulatta, Microsome; conditions: rhesus monkey
Cytochrome P450 1A2 = target: T2, Cytochrome P450 1A2 (Homo sapiens, UniProt P05177); test: Inhibition of CYP1A2; assay type: ADME
T2 sequence (P05177 whole entry): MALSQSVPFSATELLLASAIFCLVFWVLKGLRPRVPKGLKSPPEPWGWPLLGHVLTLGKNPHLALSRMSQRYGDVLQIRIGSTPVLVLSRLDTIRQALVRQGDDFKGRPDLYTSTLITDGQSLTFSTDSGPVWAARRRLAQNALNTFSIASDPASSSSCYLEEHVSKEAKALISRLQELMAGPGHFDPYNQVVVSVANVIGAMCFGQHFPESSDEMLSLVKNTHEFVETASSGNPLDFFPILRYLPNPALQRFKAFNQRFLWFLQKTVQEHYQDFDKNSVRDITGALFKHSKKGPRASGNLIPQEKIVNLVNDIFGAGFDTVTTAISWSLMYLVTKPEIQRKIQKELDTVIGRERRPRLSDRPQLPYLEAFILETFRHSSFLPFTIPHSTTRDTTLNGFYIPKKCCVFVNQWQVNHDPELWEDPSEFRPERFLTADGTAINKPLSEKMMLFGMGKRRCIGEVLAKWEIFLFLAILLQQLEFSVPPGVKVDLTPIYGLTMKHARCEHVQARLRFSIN

Cytochrome P450 2C9 = Cytochrome P450 2C9 (Homo sapiens, UniProt P11712); test: Inhibition of CYP2C9; assay type: ADME
Cytochrome P450 2C19 = Cytochrome P450 2C19 (Homo sapiens, UniProt P33261); test: Inhibition of CYP2C19; assay type: ADME
Cytochrome P450 2D6 = Cytochrome P450 2D6 (Homo sapiens, UniProt P10635); test: Inhibition of CYP2D6; assay type: ADME
Cytochrome P450 3A4 = Cytochrome P450 3A4 (Homo sapiens, UniProt P08684); test: Inhibition of CYP3A4; assay type: ADME
Rattus norvegicus [19] = test: Inhibition of RAMH-induced dipsogenia in ip dosed rat dipsogenia model; assay type: functional
Rattus norvegicus [20] = test: Induction of wake promoting activity in Sprague-Dawley rat EEG/EMG model assessed as AUC of cumulative wake time at 10 mg/kg, ip measured after 4 hrs post dosing (reference value: 114 +/- 9 mins); assay type: functional; conditions: route intraperitoneal
Rattus norvegicus [21] = test: Induction of wake promoting activity in Sprague-Dawley rat EEG/EMG model assessed as AUC of cumulative wake time at 30 mg/kg, ip measured after 4 hrs post dosing (reference value: 114 +/- 9 mins); assay type: functional; conditions: route intraperitoneal
Rattus norvegicus [22] = test: Induction of wake promoting activity in Sprague-Dawley rat EEG/EMG model assessed as increase of wake latency at 30 mg/kg, ip measured after 4 hrs post dosing; assay type: functional; conditions: route intraperitoneal
Rattus norvegicus [23] = test: Induction of wake promoting activity in Sprague-Dawley rat EEG/EMG model assessed as time to maximal cumulative wake surplus at 30 mg/kg, ip measured after 6 hrs post dosing; assay type: functional; conditions: route intraperitoneal
Rattus norvegicus [24] = test: Induction of wake promoting activity in Sprague-Dawley rat EEG/EMG model assessed as time for recovered sleep latency per hrat 30 mg/kg, ip measured after 6 to 22 hrs post dosing; assay type: functional; conditions: route intraperitoneal
Rattus norvegicus [25] = test: Induction of wake promoting activity in Sprague-Dawley rat EEG/EMG model assessed as retained wake latency at 30 mg/kg, ip measured after 22 hrs post dosing; assay type: functional; conditions: route intraperitoneal
Rattus norvegicus [26] = test: Induction of wake promoting activity in Sprague-Dawley rat EEG/EMG model assessed as surplus wake time at 30 mg/kg, ip measured after 22 hrs post dosing; assay type: functional; conditions: route intraperitoneal
Rattus norvegicus [27] = test: Induction of wake promoting activity in Sprague-Dawley rat EEG/EMG model assessed as maximum cumulative wake surplus time at 10 mg/kg, ip measured after 3 hrs post dosing; assay type: functional; conditions: route intraperitoneal
Rattus norvegicus [28] = test: Induction of wake promoting activity in Sprague-Dawley rat EEG/EMG model assessed as maximum cumulative wake surplus time at 10 mg/kg, ip measured after 22 hrs post dosing; assay type: functional; conditions: route intraperitoneal
Rattus norvegicus [29] = test: Induction of wake promoting activity in Sprague-Dawley rat EEG/EMG model assessed as fold increase in wake latency at 30 mg/kg, ip measured after 4 hrs post dosing relative to control; assay type: functional; conditions: route intraperitoneal
Histamine H1 receptor = Histamine H1 receptor (Homo sapiens, UniProt P35367); test: Binding affinity to human histamine H1 receptor
Histamine H2 receptor = Histamine H2 receptor (Homo sapiens, UniProt P25021); test: Binding affinity to human histamine H2 receptor
Histamine H4 receptor = Histamine H4 receptor (Homo sapiens, UniProt Q9H3N8); test: Binding affinity to human histamine H4 receptor
Histamine H3 receptor [30] = target: T1, Histamine H3 receptor; test: Inhibition of basal activity of human histamine H3 receptor expressed in CHO cells assessed as inhibition of RAHM-induced [35S]GTPgammaS binding after 4 hrs by beta liquid scintillation counting; assay type: functional, cell-based

Sequence of Histamine H3 receptor (Rattus norvegicus, UniProt Q9QYN8) (Q9QYN8 whole entry): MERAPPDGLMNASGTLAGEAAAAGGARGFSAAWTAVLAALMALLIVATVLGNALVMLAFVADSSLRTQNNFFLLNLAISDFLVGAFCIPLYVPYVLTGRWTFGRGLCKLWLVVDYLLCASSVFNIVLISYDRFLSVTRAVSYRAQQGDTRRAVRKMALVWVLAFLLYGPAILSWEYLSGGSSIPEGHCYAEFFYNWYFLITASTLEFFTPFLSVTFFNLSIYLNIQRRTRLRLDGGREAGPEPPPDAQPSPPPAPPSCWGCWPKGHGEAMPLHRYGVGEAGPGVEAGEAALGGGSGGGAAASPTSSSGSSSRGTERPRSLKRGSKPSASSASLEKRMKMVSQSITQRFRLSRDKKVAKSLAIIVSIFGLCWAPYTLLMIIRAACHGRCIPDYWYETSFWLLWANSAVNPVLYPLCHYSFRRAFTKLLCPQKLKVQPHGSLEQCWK
T1 sequence (Q9Y5N1 whole entry): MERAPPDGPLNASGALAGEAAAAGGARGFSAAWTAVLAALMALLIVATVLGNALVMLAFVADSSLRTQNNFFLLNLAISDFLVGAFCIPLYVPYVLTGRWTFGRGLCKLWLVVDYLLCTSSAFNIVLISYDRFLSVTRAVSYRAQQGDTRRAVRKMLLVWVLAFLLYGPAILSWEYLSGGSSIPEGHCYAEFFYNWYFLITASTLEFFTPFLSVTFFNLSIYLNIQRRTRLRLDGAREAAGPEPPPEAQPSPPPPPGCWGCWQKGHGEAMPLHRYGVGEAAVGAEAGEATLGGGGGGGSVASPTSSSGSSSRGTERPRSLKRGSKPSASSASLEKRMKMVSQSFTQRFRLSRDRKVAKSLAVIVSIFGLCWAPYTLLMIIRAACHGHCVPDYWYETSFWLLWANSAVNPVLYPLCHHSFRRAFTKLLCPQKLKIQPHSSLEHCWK
Sequence of Cytochrome P450 2C9 (P11712 whole entry): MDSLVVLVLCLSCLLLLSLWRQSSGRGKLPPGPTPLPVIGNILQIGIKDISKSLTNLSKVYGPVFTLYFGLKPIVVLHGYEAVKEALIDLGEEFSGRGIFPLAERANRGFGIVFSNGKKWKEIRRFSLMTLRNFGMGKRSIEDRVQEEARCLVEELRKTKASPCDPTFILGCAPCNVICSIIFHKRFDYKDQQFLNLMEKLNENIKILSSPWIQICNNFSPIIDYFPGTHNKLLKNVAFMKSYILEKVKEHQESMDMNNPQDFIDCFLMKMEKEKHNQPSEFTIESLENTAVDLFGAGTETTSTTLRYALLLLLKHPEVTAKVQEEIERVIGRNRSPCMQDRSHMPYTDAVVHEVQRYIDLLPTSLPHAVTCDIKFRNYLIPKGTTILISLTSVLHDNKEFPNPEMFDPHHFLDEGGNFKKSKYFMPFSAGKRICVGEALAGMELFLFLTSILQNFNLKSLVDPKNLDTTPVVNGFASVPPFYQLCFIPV
Sequence of Cytochrome P450 3A4 (P08684 whole entry): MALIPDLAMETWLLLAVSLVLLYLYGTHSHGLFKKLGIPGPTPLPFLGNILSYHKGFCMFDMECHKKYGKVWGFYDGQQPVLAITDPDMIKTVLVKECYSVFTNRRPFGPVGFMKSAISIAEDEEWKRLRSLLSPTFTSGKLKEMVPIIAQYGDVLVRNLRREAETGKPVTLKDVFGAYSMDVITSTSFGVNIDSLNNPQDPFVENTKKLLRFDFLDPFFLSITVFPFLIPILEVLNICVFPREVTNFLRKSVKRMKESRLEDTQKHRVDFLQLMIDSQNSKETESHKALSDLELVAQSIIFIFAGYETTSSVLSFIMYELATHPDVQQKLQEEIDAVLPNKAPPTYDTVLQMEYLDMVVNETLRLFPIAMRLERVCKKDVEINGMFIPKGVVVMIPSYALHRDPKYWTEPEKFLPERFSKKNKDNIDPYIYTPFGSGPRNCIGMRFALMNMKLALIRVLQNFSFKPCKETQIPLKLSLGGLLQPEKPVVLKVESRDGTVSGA
Sequence of Histamine H1 receptor (P35367 whole entry): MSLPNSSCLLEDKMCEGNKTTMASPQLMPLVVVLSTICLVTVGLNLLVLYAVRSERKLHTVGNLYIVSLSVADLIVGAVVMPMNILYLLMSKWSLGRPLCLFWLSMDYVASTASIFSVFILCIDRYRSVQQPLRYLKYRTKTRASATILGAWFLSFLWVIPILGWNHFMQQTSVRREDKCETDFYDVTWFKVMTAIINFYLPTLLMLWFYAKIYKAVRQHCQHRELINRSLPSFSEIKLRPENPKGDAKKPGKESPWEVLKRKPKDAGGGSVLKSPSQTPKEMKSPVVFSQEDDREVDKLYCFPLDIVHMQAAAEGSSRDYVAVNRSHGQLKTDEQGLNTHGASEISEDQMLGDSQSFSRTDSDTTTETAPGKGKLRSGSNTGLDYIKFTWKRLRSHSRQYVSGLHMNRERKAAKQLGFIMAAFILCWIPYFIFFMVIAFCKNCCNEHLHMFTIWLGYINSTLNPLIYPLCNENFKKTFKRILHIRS
Sequence of Cytochrome P450 2D6 (P10635 whole entry): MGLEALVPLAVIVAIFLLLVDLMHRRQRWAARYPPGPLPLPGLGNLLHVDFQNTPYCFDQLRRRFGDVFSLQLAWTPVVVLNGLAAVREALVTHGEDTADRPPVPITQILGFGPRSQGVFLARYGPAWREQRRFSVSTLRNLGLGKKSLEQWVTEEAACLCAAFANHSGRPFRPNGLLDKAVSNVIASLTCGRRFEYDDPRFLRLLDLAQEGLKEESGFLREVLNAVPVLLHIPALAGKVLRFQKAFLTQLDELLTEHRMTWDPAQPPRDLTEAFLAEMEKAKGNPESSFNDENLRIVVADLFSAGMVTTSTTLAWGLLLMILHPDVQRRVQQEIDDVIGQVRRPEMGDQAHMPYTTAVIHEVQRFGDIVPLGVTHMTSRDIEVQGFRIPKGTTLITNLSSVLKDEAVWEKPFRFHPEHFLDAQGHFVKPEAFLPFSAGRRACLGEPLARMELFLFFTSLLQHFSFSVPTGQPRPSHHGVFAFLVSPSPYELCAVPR
Sequence of Cytochrome P450 2C19 (P33261 whole entry): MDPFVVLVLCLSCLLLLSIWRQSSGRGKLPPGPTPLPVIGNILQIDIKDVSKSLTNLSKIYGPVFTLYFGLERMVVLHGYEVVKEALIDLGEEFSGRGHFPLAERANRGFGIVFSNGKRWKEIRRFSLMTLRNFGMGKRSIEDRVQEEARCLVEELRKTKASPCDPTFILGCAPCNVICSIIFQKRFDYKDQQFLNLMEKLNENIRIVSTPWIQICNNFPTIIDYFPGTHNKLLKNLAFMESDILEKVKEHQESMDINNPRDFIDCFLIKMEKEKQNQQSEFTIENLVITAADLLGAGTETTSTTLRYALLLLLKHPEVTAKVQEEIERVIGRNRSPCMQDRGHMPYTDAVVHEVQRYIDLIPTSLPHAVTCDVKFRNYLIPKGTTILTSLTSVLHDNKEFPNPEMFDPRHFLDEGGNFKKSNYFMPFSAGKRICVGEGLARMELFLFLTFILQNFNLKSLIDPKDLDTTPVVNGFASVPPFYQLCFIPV
Sequence of Histamine H2 receptor (P25021 whole entry): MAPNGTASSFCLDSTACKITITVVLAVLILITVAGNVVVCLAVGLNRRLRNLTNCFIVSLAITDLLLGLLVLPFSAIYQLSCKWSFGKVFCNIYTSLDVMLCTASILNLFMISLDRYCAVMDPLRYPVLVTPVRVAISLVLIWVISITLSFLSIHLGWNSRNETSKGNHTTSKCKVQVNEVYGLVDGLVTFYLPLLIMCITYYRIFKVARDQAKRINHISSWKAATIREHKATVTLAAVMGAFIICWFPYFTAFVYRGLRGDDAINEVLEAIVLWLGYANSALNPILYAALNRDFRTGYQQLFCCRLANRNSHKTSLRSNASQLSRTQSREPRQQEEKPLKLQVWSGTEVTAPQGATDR

Ki (Histamine H3 receptor [1]): 4.7 nM
Ki (Histamine H3 receptor [2]): 9.6 nM
SMILES: C[C@@H]1CCCN1CCCOc1ccc(-c2ccc(=O)n(-c3ccc(F)cc3)c2)cc1

clearance [3]: 96 mL/min/kg
bioavailability [4]: 0%
Ki (Histamine H3 receptor [1]): 7.7 nM
Ki (Histamine H3 receptor [2]): 9 nM
SMILES: C[C@@H]1CCCN1CCCOc1ccc(-c2ccc(=O)[nH]c2)cc1

Kb (Histamine H3 receptor [5]): 0.2 nM
half-life [7]: 84 min
Vd [8]: 1.4 L/kg
clearance [3]: 11 mL/min/kg
AUC(0-t) [9]: 867 ng·h/mL
Cmax [10]: 190 ng/mL
bioavailability [4]: 11%
Kp [11]: 1.7
concentration at 1 h [12]: 2900 nM
Kp at 1 h [13]: 1.9
solubility [14]: > 300 µg/mL
half-life [15]: > 40 min
half-life [16]: > 40 min
half-life [17]: > 40 min
half-life [18]: > 40 min
IC50 (Cytochrome P450 1A2): > 30 µM
IC50 (Cytochrome P450 2C9): > 30 µM
IC50 (Cytochrome P450 2C19): > 30 µM
IC50 (Cytochrome P450 2D6): > 30 µM
IC50 (Cytochrome P450 3A4): > 30 µM
Ki (Histamine H3 receptor [1]): 0.7 nM
Ki (Histamine H3 receptor [2]): 8.5 nM
Ki (Histamine H1 receptor): > 10 µM
Ki (Histamine H2 receptor): > 10 µM
Ki (Histamine H4 receptor): > 10 µM
EC50 (Histamine H3 receptor [30]): 0.7 nM
SMILES: C[C@@H]1CCCN1CCCOc1ccc(-c2ccc(=O)n(C)c2)cc1
Activity (Rattus norvegicus [6]): Dose-dependent effect
ED50 (Rattus norvegicus [19]): 0.03 mg/kg
inhibition (Rattus norvegicus [19]): Dose-dependent effect
Time (Rattus norvegicus [20]): 160 min
Time (Rattus norvegicus [21]): 227 min
Activity (Rattus norvegicus [22]): 95%
Time (Rattus norvegicus [23]): 146 min
Time (Rattus norvegicus [24]): 6.3 min
Activity (Rattus norvegicus [25]): 35%
Time (Rattus norvegicus [26]): 51 min
Time (Rattus norvegicus [27]): 53 min
Time (Rattus norvegicus [28]): 33 min
fold change (FC) (Rattus norvegicus [29]): 2

Ki (Histamine H3 receptor [1]): 3.2 nM
Ki (Histamine H3 receptor [2]): 12 nM
SMILES: C[C@@H]1CCCN1CCCOc1ccc(-c2ccn(C)c(=O)c2)cc1

clearance [3]: 138 mL/min/kg
bioavailability [4]: 17%
Ki (Histamine H3 receptor [1]): 1.8 nM
Ki (Histamine H3 receptor [2]): 19 nM
SMILES: C[C@@H]1CCCN1CCCOc1ccc(-c2ccc(=O)n(-c3ccccc3)c2)cc1

clearance [3]: 171 mL/min/kg
bioavailability [4]: 0%
Ki (Histamine H3 receptor [1]): 2 nM
Ki (Histamine H3 receptor [2]): 10 nM
SMILES: C[C@@H]1CCCN1CCCOc1ccc(-c2ccc(=O)n(Cc3ccccc3)c2)cc1

Ki (Histamine H3 receptor [1]): 18 nM
Ki (Histamine H3 receptor [2]): 144 nM
SMILES: C[C@@H]1CCCN1CCCOc1ccc(-c2cccn(C)c2=O)cc1

Ki (Histamine H3 receptor [1]): 112 nM
Ki (Histamine H3 receptor [2]): > 500 nM
SMILES: C[C@@H]1CCCN1CCCOc1cccc(-c2ccc(=O)n(C)c2)c1

Ki (Histamine H3 receptor [1]): 3.4 nM
Ki (Histamine H3 receptor [2]): 3 nM
SMILES: C[C@@H]1CCCN1CCCOc1ccc(-c2cc(C#N)c(=O)n(C)c2)cc1

Ki (Histamine H3 receptor [1]): 4.9 nM
Ki (Histamine H3 receptor [2]): 21 nM
SMILES: C[C@@H]1CCCN1CCCOc1ccc(-c2cccc(=O)n2C)cc1

clearance [3]: 42 mL/min/kg
bioavailability [4]: 8%
Ki (Histamine H3 receptor [1]): 0.9 nM
Ki (Histamine H3 receptor [2]): 2.4 nM
SMILES: C[C@@H]1CCCN1CCCOc1ccc(-c2cn(C)c(=O)c3ccccc23)cc1

Ki (Histamine H3 receptor [1]): 3.5 nM
Ki (Histamine H3 receptor [2]): 7.9 nM
SMILES: C[C@@H]1CCCN1CCCOc1ccc(-c2cc(-c3ccccc3)c(=O)n(C)c2)cc1
